Results taken from US20070037785A1, “Novel dipeptidyl peptidase IV inhibitors used for functionally influencing different cells and treating immunological, infammatory, neuronal, and other diseases” (priority 2003, published 2007).
pIC50: −log10 of the molar value. Where two headings read alike, the source gives them in different places.

Target: dipeptidyl peptidase IV (Homo sapiens, UniProt P27487)
Assay: biochemical
[1] = values without "*" = IC-50, read-out: IC50DPIV
[2] = values marked with "*" are ID50 values, read-out: IC50DPIV, values marked with "*" = ID50

Sequence of dipeptidyl peptidase IV (P27487 whole entry, species assumed): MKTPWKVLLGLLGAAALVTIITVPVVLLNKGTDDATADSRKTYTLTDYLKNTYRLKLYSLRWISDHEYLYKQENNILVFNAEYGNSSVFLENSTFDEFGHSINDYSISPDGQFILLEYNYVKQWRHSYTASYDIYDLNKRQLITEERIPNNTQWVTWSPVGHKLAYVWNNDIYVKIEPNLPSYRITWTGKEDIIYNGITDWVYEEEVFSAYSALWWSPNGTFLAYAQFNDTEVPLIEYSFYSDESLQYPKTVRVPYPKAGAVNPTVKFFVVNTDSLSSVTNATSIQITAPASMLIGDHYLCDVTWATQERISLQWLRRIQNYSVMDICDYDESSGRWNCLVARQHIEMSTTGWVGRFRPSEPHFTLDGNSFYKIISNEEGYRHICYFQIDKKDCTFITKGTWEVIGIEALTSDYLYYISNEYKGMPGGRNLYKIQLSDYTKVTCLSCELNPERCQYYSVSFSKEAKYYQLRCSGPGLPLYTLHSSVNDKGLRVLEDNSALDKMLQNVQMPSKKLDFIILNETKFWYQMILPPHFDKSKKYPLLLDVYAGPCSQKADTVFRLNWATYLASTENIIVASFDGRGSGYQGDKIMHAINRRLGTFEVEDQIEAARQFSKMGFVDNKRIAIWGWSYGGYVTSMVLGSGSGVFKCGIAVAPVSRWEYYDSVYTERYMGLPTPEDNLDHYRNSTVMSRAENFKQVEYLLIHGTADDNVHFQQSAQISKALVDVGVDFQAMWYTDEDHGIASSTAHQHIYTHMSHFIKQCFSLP

CCOC(=O)C(NC(=O)c1ccc(OC)cc1)(N1CCOCC1)C(F)(F)F (stereo not shown) [D5.021]
pIC50 [1]: 4.53

CCCn1c(N2CCN(CC(=O)c3c(C)n(C)c4ccccc34)CC2)nc2c1c(=O)[nH]c(=O)n2C [D5.023]
pIC50 [1]: 4.51

O=C1NCCCCC1Nc1ccc(N2C(=O)CCCC2=O)cc1[N+](=O)[O-] (stereo not shown) [D5.026]
pIC50 [1]: 4.47

Cc1ccc(C(=O)N/C(=C\c2ccco2)C(=O)N2CCOCC2)cc1C [D5.033]
pIC50 [1]: 4.33

Cn1c(=O)n(Cc2ccccc2)c(=O)c2c1nc(N1CCNCC1)n2Cc1ccccc1 [D5.034]
pIC50 [1]: 4.32

CCN(CC)C(=O)C1CCCN(c2ccc([N+](=O)[O-])cc2/C=N/NC(=O)c2cccc([N+](=O)[O-])c2)C1 (stereo not shown) [D5.036]
pIC50 [1]: 4.27

O=C1CCCC(=O)N1c1ccc(NCCc2ccc(O)cc2)c([N+](=O)[O-])c1 [D5.037]
pIC50 [1]: 4.26

CCOC(=O)C(NC(=O)c1ccccc1)(N1CCOCC1)C(F)(F)F (stereo not shown) [D5.041]
pIC50 [1]: 4.21

CCOC(=O)c1c(CNC(=O)CN2CCN(c3nc4c([nH]3)c(=O)[nH]c(=O)n4C)CC2)[nH]c2ccc(F)cc12 [D5.043]
pIC50 [2]: 4.16

CC12NCC(c3ccccc3)CC1O2 (stereo not shown) [D5.047]
pIC50 [2]: 4.02

CS(=O)(=O)N1CCN(c2ccc([N+](=O)[O-])c(NCc3ccc(Cl)cc3)c2)CC1 [D5.053]
pIC50 [2]: 3.44

O=C(Nc1cccc(/N=C/c2cc(/N=N\c3ccccc3Cl)ccc2O)c1)c1ccco1 [D6.003]
pIC50 [2]: 5.60

CN(C)CCNc1nc2c(c(=O)n(C)c(=O)n2C)n1Cc1ccccc1Cl [D6.006]
pIC50 [1]: 5.12

CC(C)(C)C(=O)Nc1ccc(C(=O)Nc2nccs2)cc1 [D6.007]
pIC50 [1]: 5.12

Cc1ccc(C2N(CC(C)C)CC(C(=O)c3c(C)cccc3C)N2CCCN2CCCC2=O)cc1 (stereo not shown) [D6.008]
pIC50 [1]: 5.12

O=C(Nc1cccc(/N=C/c2cc(I)cc(I)c2O)c1)c1ccco1 [D6.010]
pIC50 [1]: 5.04

Cc1cccc(-n2c(=O)c3c4c(sc3n3c(CC(C)C(=O)N5CCOCC5)nnc23)COC(C(C)C)C4)c1 (stereo not shown) [D6.012]
pIC50 [1]: 5.00

Nc1nonc1-n1nnc(C(=O)NN=C2c3ccccc3-c3ccccc32)c1-c1ccccc1 [D6.013]
pIC50 [1]: 5.00

CCOC(=O)CC(N)c1cccs1 (stereo not shown) [D6.018]
pIC50 [1]: 4.82

CCCn1c(N2CCN(CC(=O)c3c(C)n(C)c4ccccc34)CC2)nc2c1c(=O)[nH]c(=O)n2C [D6.019]
pIC50 [1]: 4.82

CC(C)(C)S(=O)(=O)C1=CN2C3=C(CCCC3)NC2C=C1 (stereo not shown) [D6.020]
pIC50 [1]: 4.81

O=C(NCc1ccco1)C(=O)Nc1ccc(Br)cc1 [D6.021]
pIC50 [1]: 4.79

CCOC(=O)n1ccc(C(=O)Nc2ccccc2F)n1 [D6.026]
pIC50 [1]: 4.75

CC1CCN(C(=O)/C(=C\c2ccco2)NC(=O)c2ccc(Cl)cc2)CC1 [D6.027]
pIC50 [1]: 4.73

CCn1c(N2CCN(c3ccc(OC)cc3)CC2)nc2c1c(=O)[nH]c(=O)n2C [D6.028]
pIC50 [1]: 4.72

O=C(/C=C/c1ccco1)c1ccccc1 [D6.029]
pIC50 [1]: 4.71

CCSc1nnc2n(-c3ccc(OC)cc3)c(=O)c3c4c(sc3n12)CCCC4 [D6.031]
pIC50 [1]: 4.69

Cc1cc([N+](=O)[O-])c(C)cc1-c1ccc(/C=C/c2cc(C(F)(F)F)nc(=O)[nH]2)o1 [D6.034]
pIC50 [1]: 4.69

Cc1ccccc1C(=O)N/N=C/c1ccc([N+](=O)[O-])o1 [D6.036]
pIC50 [1]: 4.68

CC(C)C1Cc2c(sc3c2c(=O)n(Cc2ccccc2)c2nnc(SCC(=O)O)n32)CO1 (stereo not shown) [D6.037]
pIC50 [1]: 4.72

CNc1nc2c(c(=O)[nH]c(=O)n2C)n1Cc1ccccc1Cl [D6.043]
pIC50 [1]: 4.56

Cc1cc2ccccc2n1CCNC(=O)c1cccs1 [D6.044]
pIC50 [1]: 4.54

CCCn1c(N2CCN(CC(=O)c3c[nH]c4ccccc34)CC2)nc2c1c(=O)[nH]c(=O)n2C [D6.046]
pIC50 [1]: 4.51

N#Cc1c(CC(=O)C(C(F)(F)F)C(F)(F)F)sc2c1CCC2 [D6.047]
pIC50 [1]: 4.51

CCCC(=O)Cc1ccc(N(C(=O)CCC)S(=O)(=O)c2cccs2)cc1 [D6.048]
pIC50 [1]: 4.50

CN(/N=C/c1sc(=O)[nH]c1Cl)c1ccccc1 [D6.049]
pIC50 [1]: 4.49

Cc1ccc(C(=O)C2(C)N(O)C(C)C(c3cccs3)=[N+]2[O-])cc1 (stereo not shown) [D6.053]
pIC50 [1]: 4.47

CCOC(=O)c1c(C)oc2c1c1c(c3ccccc32)OCN(C2CCS(=O)(=O)C2)C1 (stereo not shown) [D6.054]
pIC50 [1]: 4.47

CC1=C(C#N)C(=O)N(CCCO)C(=O)/C1=C\c1ccc(-c2cc(C)c(C)cc2[N+](=O)[O-])o1 [D6.055]
pIC50 [1]: 4.46

CCOC(=O)c1cn(-c2ccc(N3C(=O)CSCC3=O)cc2)nc1C [D6.056]
pIC50 [1]: 4.43

Cc1ccccc1NC(=O)CSC1=NCCN1 [D6.057]
pIC50 [1]: 4.42

N#Cc1c(NC(=O)C(C(F)(F)F)C(F)(F)F)sc2c1CCCC2 [D6.058]
pIC50 [1]: 4.40

CCc1c(C)[nH]c2c1/C(=N\OC(=O)C(C)C)CCC2 [D6.062]
pIC50 [1]: 4.36

Cn1c(=O)c2c(nc(NCCO)n2Cc2ccccc2Cl)n(C)c1=O [D6.063]
pIC50 [1]: 4.36

C=CCOC(=O)c1cc(-c2ccc(/C=C3/C(=O)N(CCCO)C(=O)C(C#N)=C3C)o2)ccc1Cl [D6.065]
pIC50 [1]: 4.35

Cc1ccc(C(=O)N/C(=C\c2ccco2)C(C)N2CCOCC2)cc1C (stereo not shown) [D6.067]
pIC50 [1]: 4.33

CC1C(=O)N(Cc2ccccc2)C(=O)c2c1nc(N1CCNCC1)n2Cc1ccccc1 (stereo not shown) [D6.069]
pIC50 [1]: 4.32

CCCCOC(=O)c1cc(-c2ccc(/C=C3/C(=O)N(CC(C)O)C(=O)C(C#N)=C3C)o2)ccc1Cl (stereo not shown) [D6.070]
pIC50 [1]: 4.31

CC1=C(C#N)C(=O)N(CCO)C(=O)/C1=C\c1ccc(-c2cc(Cl)ccc2Cl)o1 [D6.071]
pIC50 [1]: 4.29

Cc1ccc(Cn2cccc2/C=N/NC(=S)Nc2ccc(C)c(C)c2)cc1 [D6.078]
pIC50 [1]: 4.26

CCCc1cccc(/C=N/NC(=O)c2cc(-c3ccc(F)cc3)n[nH]2)c1O [D6.079]
pIC50 [1]: 4.26

CCOc1ccc(/C=N/NC(=O)c2cc(-c3c(OC)ccc4ccccc34)n[nH]2)cc1 [D6.081]
pIC50 [1]: 4.25

CCOC(=O)c1cc(-c2ccc(/C=C3/C(=O)NC(=O)C(C#N)=C3C)o2)ccc1Cl [D6.082]
pIC50 [1]: 4.25

CC1CCc2c(sc(NC(=O)C(C(F)(F)F)C(F)(F)F)c2C#N)C1 (stereo not shown) [D6.083]
pIC50 [1]: 4.22

Cc1ccc(/C=N/NC(=O)c2cccc(I)c2)o1 [D6.084]
pIC50 [1]: 4.24

CCC(N)C(=O)c1cccs1 (stereo not shown) [D6.085]
pIC50 [1]: 4.21

CCOC(=O)c1ccc(-c2ccc(/C=C3\C(=O)N(CCO)C(=O)C(C#N)=C3C)o2)cc1 [D6.087]
pIC50 [1]: 4.18

CC1=C(C#N)C(=O)N(CC(C)O)C(=O)/C1=C/c1ccc(-c2ccc(Br)cc2)o1 (stereo not shown) [D6.089]
pIC50 [1]: 4.13

Cc1ccc(C(=O)N/C(=C/c2ccco2)C(=O)N(C)C)cc1 [D6.091]
pIC50 [1]: 4.32

CCCOC(=O)c1cc(-c2ccc(/C=C3\C(=O)N(CCCO)C(=O)C(C#N)=C3C)o2)ccc1Cl [D6.092]
pIC50 [1]: 4.12

CCCOC(=O)c1cc(-c2ccc(/C=C3/C(=O)N(CC(C)O)C(=O)C(C#N)=C3C)o2)ccc1Cl (stereo not shown) [D6.095]
pIC50 [1]: 4.09

COc1ccc(-c2ccc(C3Nc4ccc5ccccc5c4C4=C3C(=O)CC(C)(C)C4)o2)cc1Cl (stereo not shown) [D6.098]
pIC50 [1]: 4.06

CC1=C(C#N)C(=O)N=C(O)/C1=C\c1ccc(-c2ccc(Cl)cc2Cl)o1 [D6.101]
pIC50 [1]: 4.02

COC(=O)c1ccc(NC(=O)/C(=C\c2cccc([N+](=O)[O-])c2)NC(=O)c2ccc(Br)o2)cc1 [D6.108]
pIC50 [1]: 3.94

CCOC(=O)n1ccc(C(=O)Nc2cc(C)ccn2)n1 [D6.112]
pIC50 [2]: 3.83

CCOC(=O)c1c(NC(=O)c2cccc([N+](=O)[O-])c2)sc(C(C)=O)c1C [D6.117]
pIC50 [2]: 3.67

O=C(CC1(O)OC(c2ccccc2)=CC1=O)c1ccccc1 (stereo not shown) [D6.122]
pIC50 [2]: 3.60

COc1ccc(NC(=O)CSc2nnc3n2-c2sc4c(c2C(=O)C3CCc2ccccc2)CC(C)(C)OC4)cc1 (stereo not shown) [D6.126]
pIC50 [2]: 3.55

CCn1c2ccccc2c2ccc(/C=N/NC(=O)c3ccc([N+](=O)[O-])cc3)cc21 [D7.001]
pIC50 [2]: 3.78

COc1ccc(N(C(C)C(=O)N/N=C/c2ccc(Cl)cc2Cl)S(C)(=O)=O)cc1 (stereo not shown) [D9.001]
pIC50 [2]: 5.54

Cc1ccc(S(=O)(=O)CNC(=S)c2ccc3ccccc3c2)cc1 [D9.002]
pIC50 [1]: 4.84

CCCC(=O)Oc1ccc(N(C(=O)CCC)S(=O)(=O)c2cccs2)cc1 [D9.004]
pIC50 [1]: 4.50

CCOC(=O)c1c(C)oc2c1c1c(c3ccccc32)OCN(C2CCS(=O)(=O)C2)C1 (stereo not shown) [D9.006]
pIC50 [1]: 4.47

CS(=O)(=O)N1CCN(C(=O)Nc2ccc(C(F)(F)F)cc2)C1C(=O)NCc1cccc(N)c1 (stereo not shown) [D9.007]
pIC50 [1]: 4.39

CCOP(=O)(CC(=O)N1CCN(C(=O)Nc2cccc(Br)c2)C1C(=O)NCc1cccc(CN)c1)OCC (stereo not shown) [D9.008]
pIC50 [1]: 4.33

COc1ccc(NS(=O)(=O)c2ccc(/N=C/c3cc(Br)cc(Br)c3O)cc2)nn1 [D9.010]
pIC50 [1]: 4.05

Cc1cc(NNC(=O)COc2ccc(Cl)cc2Cl)nc(NS(=O)(=O)c2ccccc2)n1 [D9.015]
pIC50 [2]: 3.33

O=C(CCCCC(=O)N/N=C/c1ccc(OC(=O)c2cc([N+](=O)[O-])cc([N+](=O)[O-])c2)cc1)N/N=C/c1ccc(OC(=O)c2cc([N+](=O)[O-])cc([N+](=O)[O-])c2)cc1 [D10.001]
pIC50 [2]: 6.00

COc1cc(/C=N/NC(=O)c2cc(O)c(O)c(O)c2)cc(Br)c1OCc1ccccc1Cl [D10.002]
pIC50 [2]: 5.70

COc1ccc(N(C(C)C(=O)N/N=C/c2ccc(Cl)cc2Cl)S(C)(=O)=O)cc1 (stereo not shown) [D10.003]
pIC50 [2]: 5.54

O=C(N/N=C/c1ccc([N+](=O)[O-])c(O)c1)/C(=C\c1cccs1)NC(=O)c1ccccc1 [D10.004]
pIC50 [1]: 5.19

CCC(=O)Oc1ccc(/C=N/NC(=O)c2ccccc2[N+](=O)[O-])c(OC(=O)CC)c1 [D10.005]
pIC50 [1]: 5.18

C/C(=N\NC(=O)c1cc(-c2ccc(CC(C)C)cc2)n[nH]1)c1ccc2ccccc2c1 [D10.007]
pIC50 [2]: 5.14

CN(C)c1ccc(/C=N\NC(=O)c2cc(N)ccc2O)cc1 [D10.008]
pIC50 [1]: 5.12

O=C(N/N=C/c1cc([N+](=O)[O-])ccc1O)c1cccc2cc[nH]c12 [D10.009]
pIC50 [1]: 5.09

COc1cc(Br)cc(Br)c1OCC(=O)N/N=C/c1cc(O)c(O)c(Br)c1Br [D10.010]
pIC50 [1]: 5.04

CC(=O)N(C(C)=O)c1nc(-c2ccccc2)cn1/N=C/c1ccccc1 [D10.011]
pIC50 [1]: 5.00

Nc1nonc1-n1nnc(C(=O)NN=C2c3ccccc3-c3ccccc32)c1-c1ccccc1 [D10.012]
pIC50 [1]: 5.00
